Patent US8648068B2, “Heterocycloalkyl-containing thienopyrimidines for pharmaceutical compositions” (Boehringer Ingelheim International GmbH, priority 2010, dated 2014)

These compounds were tested against T1, human Mnk2a (Homo sapiens, UniProt Q9HBH9) (assay: Mnk2a in vitro kinase assay (indirect fluorescence polarization)). Details: GST-Mnk2a pre-activated with ERK2, 20 μM ATP, 30 μM substrate peptide; read-out: MNK2 IC50.
T1 construct: made in house; host or cells: E. coli BL21 (vector pGEX-4T1)
T1 sequence (Q9HBH9 whole entry): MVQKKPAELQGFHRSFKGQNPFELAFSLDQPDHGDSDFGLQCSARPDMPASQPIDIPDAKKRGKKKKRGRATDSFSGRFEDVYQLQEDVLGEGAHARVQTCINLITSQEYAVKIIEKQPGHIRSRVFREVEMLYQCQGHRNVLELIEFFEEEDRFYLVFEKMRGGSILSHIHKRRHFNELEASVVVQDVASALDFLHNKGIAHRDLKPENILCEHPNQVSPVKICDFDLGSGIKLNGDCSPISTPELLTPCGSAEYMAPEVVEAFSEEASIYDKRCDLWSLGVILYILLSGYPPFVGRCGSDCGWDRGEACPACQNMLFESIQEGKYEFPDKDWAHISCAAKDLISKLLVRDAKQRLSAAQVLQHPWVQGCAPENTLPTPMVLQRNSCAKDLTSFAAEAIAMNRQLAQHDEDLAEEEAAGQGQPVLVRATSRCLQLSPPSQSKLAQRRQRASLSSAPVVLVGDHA
Type: biochemical
Outline: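 Indirect competitive fluorescence polarization: kinase-generated phospho-product displaces a fluorophore-labelled phospho-peptide from a phospho-specific antibody. Enzyme is N-terminal GST-Mnk2a from E. coli, activated with pre-activated ERK2 and 50 μM ATP; substrate is an amidated 12-mer peptide around eIF4E Ser209.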
`Cc1c(C(=O)NCC2CN(C)CCO2)sc2ncnc(Nc3ccc(F)cc3OC3CCOCC3)c12` (stereo not drawn) [Example 116, 4-[4-Fluoro-2-(tetrahydro-pyran-4-yloxy)-phenylamino]-5-methyl-thieno[2,3-d]pyrimidine-6-carboxylic acid (4-methyl-morpholin-2-ylmethyl)-amide trifluoracetate] was tested, and the IC50 was 22 nM.
`Cc1c(C(=O)NCC2CN(C)CCO2)sc2ncnc(Nc3ccc(F)cc3OC3CCOCC3)c12` (stereo not drawn) [Example 117] showed an IC50 of 22 nM.
With `Cc1c(C(=O)NCCCN2CCCC2)sc2ncnc(Nc3ccc(F)cc3OC3CCOCC3)c12` [Example 118] the IC50 was 29 nM.
For `Cc1c(C(=O)NCCC2CCCN2C)sc2ncnc(Nc3ccc(F)cc3OC3CCOCC3)c12` (stereo not drawn) [Example 119], the IC50 was 26 nM.
Work on `Cc1c(C(=O)NCCCN2CCN(C)CC2)sc2ncnc(Nc3ccc(F)cc3OC3CCOCC3)c12` [Example 120] yielded an IC50 of 22 nM.
`COC[C@H]1CCCN1CCCNC(=O)c1sc2ncnc(Nc3ccc(F)cc3OC3CCOCC3)c2c1C` [Example 121] showed an IC50 of 33 nM.
Work on `COC[C@@H]1CCCN1CCCNC(=O)c1sc2ncnc(Nc3ccc(F)cc3OC3CCOCC3)c2c1C` [Example 122] yielded an IC50 of 48 nM.
`Cc1c(C(=O)NCC2CCCN(C)C2)sc2ncnc(Nc3ccc(F)cc3OC3CCOCC3)c12` (stereo not drawn) [Example 123] gave an IC50 of 38 nM.
`Cc1c(C(=O)NCCCN2CCC(F)(F)C2)sc2ncnc(Nc3ccc(F)cc3OC3CCOCC3)c12` [Example 124] gave an IC50 of 31 nM.
In the case of `Cc1c(C(=O)NCCCN2CC(F)(F)C2)sc2ncnc(Nc3ccc(F)cc3OC3CCOCC3)c12` [Example 125], the IC50 is reported as 25 nM.
`Cc1c(C(=O)NCCCN(C)CCN(C)C)sc2ncnc(Nc3ccc(F)cc3OC3CCOCC3)c12` [Example 126] was tested, and the IC50 was 26 nM.
In the case of `Cc1c(C(=O)NCC2CNCCO2)sc2ncnc(Nc3ccc(F)cc3OC3CCOCC3)c12` (stereo not drawn) [Example 127], the IC50 is reported as 17 nM.
Work on `Cc1c(C(=O)NCC(N)=O)sc2ncnc(Nc3ccc(F)cc3OC3CCOCC3)c12` [Example 128] yielded an IC50 of 41 nM.
Compound `Cc1c(C(=O)N[C@H]2CC[C@H](CO)CC2)sc2ncnc(Nc3ccc(F)cc3OC3CCOCC3)c12` [Example 129] has an IC50 of 32 nM.
`CC(=O)NCCCNC(=O)c1sc2ncnc(Nc3ccc(F)cc3OC3CCOCC3)c2c1C` [Example 130] showed an IC50 of 36 nM.
`Cc1c(C(=O)NCCCN2CCCC2=O)sc2ncnc(Nc3ccc(F)cc3OC3CCOCC3)c12` [Example 131] was tested, and the IC50 was 35 nM.
`Cc1c(C(=O)NCC#CCN)sc2ncnc(Nc3ccc(F)cc3OC3CCOCC3)c12` [Example 134] showed an IC50 of 16 nM.
For `Cc1c(C(=O)NC(C)C)sc2ncnc(Nc3ccc(F)cc3OC3CCOCC3)c12` [Example 135], the IC50 was 43 nM.
`Cc1c(C(=O)N[C@H]2C[C@H]2N)sc2ncnc(Nc3ccc(F)cc3OC3CCOCC3)c12` [Example 136] was tested, and the IC50 was 71 nM.
`Cc1c(C(=O)NCC2(N)CCCC2)sc2ncnc(Nc3ccc(F)cc3OC3CCOCC3)c12` [Example 140] gave an IC50 of 92 nM.
Work on `Cc1c(C(=O)N[C@@H]2CC[C@H](N)C2)sc2ncnc(Nc3ccc(F)cc3OC3CCOCC3)c12` [Example 142] yielded an IC50 of 38 nM.
Work on `Cc1c(C(=O)N[C@H]2C[C@H](N)C2)sc2ncnc(Nc3ccc(F)cc3OC3CCOCC3)c12` [Example 143] yielded an IC50 of 41 nM.
In the case of `Cc1c(C(=O)N[C@H]2C[C@@H]2N)sc2ncnc(Nc3ccc(F)cc3OC3CCOCC3)c12` [Example 144], the IC50 is reported as 47 nM.
In the case of `CNCCNC(=O)c1sc2ncnc(Nc3ccc(F)cc3OC3CCOCC3)c2c1C` [Example 146], the IC50 is reported as 70 nM.
With `Cc1c(C(=O)N[C@H](C)C(=O)O)sc2ncnc(Nc3ccc(F)cc3OC3CCOCC3)c12` [Example 147] the IC50 was 15 nM.
With `Cc1c(C(=O)N[C@@H](C)C(=O)O)sc2ncnc(Nc3ccc(F)cc3OC3CCOCC3)c12` [Example 148] the IC50 was 68 nM.
With `Cc1c(C(=O)NCC(=O)O)sc2ncnc(Nc3ccc(F)cc3OC3CCOCC3)c12` [Example 149] the IC50 was 37 nM.
With `Cc1c(C(=O)NCC2CCC(=O)N2)sc2ncnc(Nc3ccc(F)cc3OC3CCOCC3)c12` (stereo not drawn) [Example 150] the IC50 was 70 nM.
Work on `Cc1c(C(=O)NCCn2ccnc2)sc2ncnc(Nc3ccc(F)cc3OC3CCOCC3)c12` [Example 151] yielded an IC50 of 57 nM.
Work on `Cc1c(C(=O)NCCCO)sc2ncnc(Nc3ccc(F)cc3OC3CCOCC3)c12` [Example 152] yielded an IC50 of 40 nM.
Work on `Cc1c(C(=O)NC(CO)CO)sc2ncnc(Nc3ccc(F)cc3OC3CCOCC3)c12` [Example 153] yielded an IC50 of 113 nM.
`Cc1c(C(=O)NCC(C)(C)CN(C)C)sc2ncnc(Nc3ccc(F)cc3OC3CCOCC3)c12` [Example 154] showed an IC50 of 215 nM.
Work on `Cc1c(C(=O)NCCCCO)sc2ncnc(Nc3ccc(F)cc3OC3CCOCC3)c12` [Example 155] yielded an IC50 of 38 nM.
For `Cc1c(C(=O)NC(C)CO)sc2ncnc(Nc3ccc(F)cc3OC3CCOCC3)c12` (stereo not drawn) [Example 156], the IC50 was 50 nM.
Compound `Cc1c(C(=O)NCC(=O)N(C)C)sc2ncnc(Nc3ccc(F)cc3OC3CCOCC3)c12` [Example 157] has an IC50 of 65 nM.
`Cc1c(C(=O)NCC(C)O)sc2ncnc(Nc3ccc(F)cc3OC3CCOCC3)c12` (stereo not drawn) [Example 158] gave an IC50 of 42 nM.
For `Cc1c(C(=O)NCC(F)(F)F)sc2ncnc(Nc3ccc(F)cc3OC3CCOCC3)c12` [Example 159], the IC50 was 44 nM.
`CCOCCNC(=O)c1sc2ncnc(Nc3ccc(F)cc3OC3CCOCC3)c2c1C` [Example 160] showed an IC50 of 59 nM.
`CCCOCCNC(=O)c1sc2ncnc(Nc3ccc(F)cc3OC3CCOCC3)c2c1C` [Example 161] gave an IC50 of 56 nM.
In the case of `COCC(C)NC(=O)c1sc2ncnc(Nc3ccc(F)cc3OC3CCOCC3)c2c1C` (stereo not drawn) [Example 163], the IC50 is reported as 60 nM.
With `Cc1c(C(=O)NCC#N)sc2ncnc(Nc3ccc(F)cc3OC3CCOCC3)c12` [Example 164] the IC50 was 27 nM.
For `Cc1c(C(=O)NCCC(N)=O)sc2ncnc(Nc3ccc(F)cc3OC3CCOCC3)c12` [Example 165], the IC50 was 39 nM.
`CNC(=O)CCNC(=O)c1sc2ncnc(Nc3ccc(F)cc3OC3CCOCC3)c2c1C` [Example 166] was tested, and the IC50 was 37 nM.
Work on `Cc1c(C(=O)NCCC(=O)N(C)C)sc2ncnc(Nc3ccc(F)cc3OC3CCOCC3)c12` [Example 167] yielded an IC50 of 43 nM.
`Cc1c(C(=O)NCCCCCN(C)C)sc2ncnc(Nc3ccc(F)cc3OC3CCOCC3)c12` [Example 168] showed an IC50 of 23 nM.
`Cc1c(C(=O)NCCCc2c[nH]cn2)sc2ncnc(Nc3ccc(F)cc3OC3CCOCC3)c12` [Example 169] gave an IC50 of 38 nM.
For `Cc1c(C(=O)N[C@H]2CC[C@@](C)(O)CC2)sc2ncnc(Nc3ccc(F)cc3OC3CCOCC3)c12` [Example 170], the IC50 was 125 nM.
Compound `Cc1c(C(=O)NCCc2cnn(C)c2)sc2ncnc(Nc3ccc(F)cc3OC3CCOCC3)c12` [Example 171] has an IC50 of 41 nM.
`Cc1c(C(=O)NCC2CCOCC2)sc2ncnc(Nc3ccc(F)cc3OC3CCOCC3)c12` [Example 172] was tested, and the IC50 was 43 nM.
With `Cc1c(C(=O)N[C@H]2CC[C@H](O)CC2)sc2ncnc(Nc3ccc(F)cc3OC3CCOCC3)c12` [Example 173] the IC50 was 39 nM.
For `Cc1c(C(=O)NC2CCN(C)CC2)sc2ncnc(Nc3ccc(F)cc3OC3CCOCC3)c12` [Example 174], the IC50 was 60 nM.
`CNC(=O)CNC(=O)c1sc2ncnc(Nc3ccc(F)cc3OC3CCOCC3)c2c1C` [Example 175] was tested, and the IC50 was 50 nM.
With `Cc1c(C(=O)NCCN2CCCC2=O)sc2ncnc(Nc3ccc(F)cc3OC3CCOCC3)c12` [Example 176] the IC50 was 105 nM.
`Cc1c(C(=O)NC2CCN(C)C2)sc2ncnc(Nc3ccc(F)cc3OC3CCOCC3)c12` (stereo not drawn) [Example 177] gave an IC50 of 67 nM.
Compound `Cc1c(C(=O)NCC2(O)CC2)sc2ncnc(Nc3ccc(F)cc3OC3CCOCC3)c12` [Example 178] has an IC50 of 47 nM.
With `Cc1c(C(=O)NCCn2cc[nH]c2=O)sc2ncnc(Nc3ccc(F)cc3OC3CCOCC3)c12` [Example 179] the IC50 was 166 nM.
`Cc1c(C(=O)NCCS(C)(=O)=O)sc2ncnc(Nc3ccc(F)cc3OC3CCOCC3)c12` [Example 180] gave an IC50 of 33 nM.
Work on `Cc1c(C(=O)NCC#CCN(C)C)sc2ncnc(Nc3ccc(F)cc3OC3CCOCC3)c12` [Example 181] yielded an IC50 of 21 nM.
In the case of `Cc1c(C(=O)NCc2cc[nH]n2)sc2ncnc(Nc3ccc(F)cc3OC3CCOCC3)c12` [Example 182], the IC50 is reported as 30 nM.
For `Cc1c(C(=O)NCCn2cccn2)sc2ncnc(Nc3ccc(F)cc3OC3CCOCC3)c12` [Example 183], the IC50 was 51 nM.
Work on `Cc1c(C(=O)NCc2cn(C)cn2)sc2ncnc(Nc3ccc(F)cc3OC3CCOCC3)c12` [Example 184] yielded an IC50 of 22 nM.
With `Cc1c(C(=O)NCc2cnco2)sc2ncnc(Nc3ccc(F)cc3OC3CCOCC3)c12` [Example 186] the IC50 was 30 nM.
For `Cc1c(C(=O)NCc2ncco2)sc2ncnc(Nc3ccc(F)cc3OC3CCOCC3)c12` [Example 187], the IC50 was 27 nM.
`Cc1c(C(=O)NCCNS(C)(=O)=O)sc2ncnc(Nc3ccc(F)cc3OC3CCOCC3)c12` [Example 189] gave an IC50 of 25 nM.
With `Cc1c(C(=O)NCC(C)(C)O)sc2ncnc(Nc3ccc(F)cc3OC3CCOCC3)c12` [Example 190] the IC50 was 66 nM.
`Cc1c(C(=O)N[C@H]2CC[C@@H](O)CC2)sc2ncnc(Nc3ccc(F)cc3OC3CCOCC3)c12` [Example 191] was tested, and the IC50 was 47 nM.
`Cc1c(C(=O)NC2CCCC(O)C2)sc2ncnc(Nc3ccc(F)cc3OC3CCOCC3)c12` (stereo not drawn) [Example 192] gave an IC50 of 42 nM.
For `Cc1c(C(=O)NCCCS(C)(=O)=O)sc2ncnc(Nc3ccc(F)cc3OC3CCOCC3)c12` [Example 193], the IC50 was 33 nM.
With `Cc1c(C(=O)NC2(CO)CC2)sc2ncnc(Nc3ccc(F)cc3OC3CCOCC3)c12` [Example 194] the IC50 was 63 nM.
`Cc1c(C(=O)NCCc2cn[nH]c2O)sc2ncnc(Nc3ccc(F)cc3OC3CCOCC3)c12` [Example 195] gave an IC50 of 67 nM.
`Cc1c(C(=O)NCCS(N)(=O)=O)sc2ncnc(Nc3ccc(F)cc3OC3CCOCC3)c12` [Example 196] showed an IC50 of 34 nM.
Work on `Cc1c(C(=O)NCC2CCCOC2)sc2ncnc(Nc3ccc(F)cc3OC3CCOCC3)c12` (stereo not drawn) [Example 197] yielded an IC50 of 28 nM.
Work on `Cc1c(C(=O)NCc2cocn2)sc2ncnc(Nc3ccc(F)cc3OC3CCOCC3)c12` [Example 198] yielded an IC50 of 29 nM.
In the case of `Cc1c(C(=O)NCC2CNC(=O)C2)sc2ncnc(Nc3ccc(F)cc3OC3CCOCC3)c12` (stereo not drawn) [Example 199], the IC50 is reported as 30 nM.
Work on `Cc1c(C(=O)NC2CN(C)C2)sc2ncnc(Nc3ccc(F)cc3OC3CCOCC3)c12` [Example 200] yielded an IC50 of 69 nM.
